Experimental data published in ChEMBL document CHEMBL1201862, “PubChem BioAssay data set” (2004).
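Assay format: 96-well plates, 48-hour exposure. GI50 = concentration required for 50% inhibition of growth.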 Calls of active or inactive are those of the source. Cut-off read from the data, not from the text of the source: active = GI50 up to about 1.1 µM and inactive = higher.

Columns and labels:
Assay in all cases: inhibition of tumour cell growth, NCI panel, 48 h
U-251 = system: U-251
DU-145 = system: DU-145
SK-OV-3 = system: SK-OV-3
EKVX = system: EKVX
UO-31 = system: UO-31
CAKI-1 = system: CAKI-1
SW-620 = system: SW-620
COLO 205 = system: COLO 205
HCT-116 = system: HCT-116
RXF 393 = system: RXF 393
CCRF-CEM = system: CCRF-CEM
IGROV-1 = system: IGROV-1
SK-MEL-28 = system: SK-MEL-28
OVCAR-8 = system: OVCAR-8
TK-10 = system: TK-10
PC-3 = system: PC-3
NCI/ADR-RES = system: NCI/ADR-RES
Malme-3M = system: Malme-3M
SF-268 = system: SF-268
RPMI-8226 = system: RPMI-8226
T47D = system: T47D
Hs-578T = system: Hs-578T
A549 = system: A549
OVCAR-4 = system: OVCAR-4
HOP-92 = system: HOP-92
NCI-H23 = system: NCI-H23
K562 = system: K562
KM12 = system: KM12
SNB-75 = system: SNB-75
SNB-19 = system: SNB-19
MDA-N = system: MDA-N
SR = system: SR
HCT-15 = system: HCT-15
MOLT-4 = system: MOLT-4
SK-MEL-5 = system: SK-MEL-5
SF-295 = system: SF-295
OVCAR-5 = system: OVCAR-5
HL-60 = system: HL-60
M14 = system: M14
UACC-257 = system: UACC-257
MDA-MB-435 = system: MDA-MB-435
OVCAR-3 = system: OVCAR-3
LOX IMVI = system: LOX IMVI
HT-29 = system: HT-29
NCI-H522 = system: NCI-H522
HCC 2998 = system: HCC 2998
SF-539 = system: SF-539
786-0 = system: 786-0
ACHN = system: ACHN
SK-MEL-2 = system: SK-MEL-2
MCF7 = system: MCF7
NCI-H460 = system: NCI-H460
SN12C = system: SN12C
NCI-H226 = system: NCI-H226
HOP-62 = system: HOP-62
A498 = system: A498
MDA-MB-231 = system: MDA-MB-231

Q: With `COc1cc(OC)c(OC)cc1/C=C\c1nccc2ccccc12` as the compound, how does the GI50 (U-251) read?
A: 24.9 µM (inactive)

Q: And the GI50 (DU-145)?
A: 16.3 µM (inactive)

Q: What about the GI50 (SK-OV-3) of the same compound?
A: 32.8 µM (inactive)

Q: What about the GI50 (EKVX) of the same compound?
A: 22.2 µM (inactive)

Q: What about the GI50 (UO-31) of the same compound?
A: 16.8 µM (inactive)

Q: What about the GI50 (CAKI-1) of the same compound?
A: 22.5 µM (inactive)

Q: And the GI50 (SW-620)?
A: 26.9 µM (inactive)

Q: What about the GI50 (COLO 205) of the same compound?
A: 22.5 µM (inactive)

Q: And the GI50 (HCT-116)?
A: 18.1 µM (inactive)

Q: And the GI50 (RXF 393)?
A: 18.7 µM (inactive)

Q: And the GI50 (CCRF-CEM)?
A: 76.2 µM (inactive)

Q: And the GI50 (IGROV-1)?
A: 28.5 µM (inactive)

Q: And the GI50 (SK-MEL-28)?
A: 29.3 µM (inactive)

Q: What about the GI50 (OVCAR-8) of the same compound?
A: 23.2 µM (inactive)

Q: What about the GI50 (TK-10) of the same compound?
A: 27.8 µM (inactive)

Q: And the GI50 (PC-3)?
A: 27.8 µM (inactive)

Q: What about the GI50 (NCI/ADR-RES) of the same compound?
A: 31.2 µM (inactive)

Q: What about the GI50 (Malme-3M) of the same compound?
A: 33 µM (inactive)

Q: And the GI50 (SF-268)?
A: 23.3 µM (inactive)

Q: And the GI50 (RPMI-8226)?
A: 18.7 µM (inactive)

Q: And the GI50 (T47D)?
A: 24.2 µM (inactive)

Q: And the GI50 (Hs-578T)?
A: 28.3 µM (inactive)

Q: And the GI50 (A549)?
A: 25.6 µM (inactive)

Q: What about the GI50 (OVCAR-4) of the same compound?
A: 29.1 µM (inactive)

Q: What about the GI50 (HOP-92) of the same compound?
A: 15.3 µM (inactive)

Q: And the GI50 (NCI-H23)?
A: 23.4 µM (inactive)

Q: And the GI50 (K562)?
A: 28.9 µM (inactive)

Q: What about the GI50 (KM12) of the same compound?
A: 15.1 µM (inactive)

Q: And the GI50 (SNB-75)?
A: 23.9 µM (inactive)

Q: What about the GI50 (SNB-19) of the same compound?
A: 18.5 µM (inactive)

Q: What about the GI50 (MDA-N) of the same compound?
A: > 10 µM (inactive)

Q: What about the GI50 (SR) of the same compound?
A: 20.9 µM (inactive)

Q: What about the GI50 (HCT-15) of the same compound?
A: > 10 µM

Q: What about the GI50 (MOLT-4) of the same compound?
A: 16.1 µM (inactive)

Q: And the GI50 (SK-MEL-5)?
A: 15.2 µM (inactive)

Q: What about the GI50 (SF-295) of the same compound?
A: 24 µM (inactive)

Q: What about the GI50 (OVCAR-5) of the same compound?
A: 29.3 µM (inactive)

Q: What about the GI50 (HL-60) of the same compound?
A: 18.7 µM (inactive)

Q: What about the GI50 (M14) of the same compound?
A: 16.7 µM (inactive)

Q: What does the source list for `CC[C@H]1C[C@@H](O)[C@@H]2[C@H](O)[C@H](O)CN2C1`?
A: GI50 (UACC-257): > 100 µM (inactive); GI50 (U-251): > 100 µM (inactive); GI50 (MDA-MB-435): > 100 µM (inactive); GI50 (DU-145): > 100 µM (inactive); GI50 (SK-OV-3): > 100 µM (inactive); GI50 (EKVX): > 100 µM (inactive); GI50 (OVCAR-3): > 100 µM (inactive); GI50 (SW-620): > 100 µM (inactive); GI50 (LOX IMVI): > 100 µM (inactive); GI50 (HT-29): > 100 µM (inactive); GI50 (HCT-116): > 100 µM (inactive); GI50 (NCI-H522): > 100 µM (inactive); GI50 (HCC 2998): > 100 µM (inactive); GI50 (SF-539): > 100 µM (inactive); GI50 (CCRF-CEM): > 100 µM (inactive); GI50 (IGROV-1): > 100 µM (inactive); GI50 (SK-MEL-28): > 100 µM (inactive); GI50 (OVCAR-8): > 100 µM (inactive); GI50 (TK-10): > 100 µM (inactive); GI50 (786-0): > 100 µM (inactive); GI50 (ACHN): > 100 µM (inactive); GI50 (PC-3): > 100 µM (inactive); GI50 (NCI/ADR-RES): > 100 µM (inactive); GI50 (Malme-3M): > 100 µM (inactive); GI50 (SF-268): > 100 µM (inactive); GI50 (RPMI-8226): > 100 µM (inactive); GI50 (SK-MEL-2): > 100 µM (inactive); GI50 (T47D): > 100 µM (inactive); GI50 (MCF7): > 100 µM (inactive); GI50 (Hs-578T): > 100 µM (inactive); GI50 (A549): > 100 µM (inactive); GI50 (NCI-H460): > 100 µM (inactive); GI50 (OVCAR-4): > 100 µM (inactive); GI50 (HOP-92): > 100 µM (inactive); GI50 (SN12C): > 100 µM (inactive); GI50 (K562): > 100 µM (inactive); GI50 (KM12): > 100 µM (inactive); GI50 (SNB-75): > 100 µM (inactive); GI50 (SNB-19): > 100 µM (inactive); GI50 (NCI-H226): > 100 µM (inactive); GI50 (MDA-N): > 100 µM (inactive); GI50 (HCT-15): > 100 µM; GI50 (MOLT-4): > 100 µM (inactive); GI50 (SK-MEL-5): > 100 µM (inactive); GI50 (SF-295): > 100 µM (inactive); GI50 (OVCAR-5): > 100 µM (inactive); GI50 (HL-60): > 100 µM (inactive); GI50 (M14): > 100 µM (inactive)

Q: Which GI50 (U-251) does the source give for `CC(=O)OC/C=C\Cn1ncc(=O)[nH]c1=O` here?
A: 15 µM (inactive)

Q: What about the GI50 (MDA-MB-435) of the same compound?
A: 18.2 µM (inactive)

Q: What about the GI50 (DU-145) of the same compound?
A: 24.2 µM (inactive)

Q: What about the GI50 (EKVX) of the same compound?
A: 20.3 µM (inactive)

Q: And the GI50 (UO-31)?
A: 16.1 µM (inactive)

Q: And the GI50 (OVCAR-3)?
A: 28.2 µM (inactive)

Q: What about the GI50 (SW-620) of the same compound?
A: 17.1 µM (inactive)

Q: And the GI50 (LOX IMVI)?
A: 3.32 µM (inactive)

Q: And the GI50 (COLO 205)?
A: 16 µM (inactive)

Q: And the GI50 (HT-29)?
A: 14.2 µM (inactive)

Q: What about the GI50 (NCI-H522) of the same compound?
A: 16.1 µM (inactive)

Q: And the GI50 (RXF 393)?
A: 17.8 µM (inactive)

Q: What about the GI50 (HCC 2998) of the same compound?
A: 19 µM (inactive)

Q: And the GI50 (SF-539)?
A: 18.2 µM (inactive)

Q: And the GI50 (CCRF-CEM)?
A: 17.3 µM (inactive)

Q: What about the GI50 (IGROV-1) of the same compound?
A: 17.9 µM (inactive)

Q: And the GI50 (SK-MEL-28)?
A: 21.4 µM (inactive)

Q: And the GI50 (HOP-62)?
A: 20.8 µM (inactive)

Q: And the GI50 (OVCAR-8)?
A: 23.7 µM (inactive)

Q: And the GI50 (ACHN)?
A: 21.6 µM (inactive)

Q: And the GI50 (PC-3)?
A: 16 µM (inactive)

Q: And the GI50 (NCI/ADR-RES)?
A: 23.1 µM (inactive)

Q: What about the GI50 (Malme-3M) of the same compound?
A: 16.5 µM (inactive)

Q: And the GI50 (SF-268)?
A: 18 µM (inactive)

Q: What about the GI50 (RPMI-8226) of the same compound?
A: 7.71 µM (inactive)

Q: And the GI50 (SK-MEL-2)?
A: 18.1 µM (inactive)

Q: What about the GI50 (T47D) of the same compound?
A: 22.1 µM (inactive)

Q: What about the GI50 (MCF7) of the same compound?
A: 13 µM (inactive)

Q: What about the GI50 (Hs-578T) of the same compound?
A: 27.7 µM (inactive)

Q: And the GI50 (A498)?
A: 16.4 µM (inactive)

Q: What about the GI50 (A549) of the same compound?
A: 22.9 µM (inactive)

Q: What about the GI50 (NCI-H460) of the same compound?
A: 23.3 µM (inactive)

Q: And the GI50 (HOP-92)?
A: 15.8 µM (inactive)

Q: What about the GI50 (NCI-H23) of the same compound?
A: 13.6 µM (inactive)

Q: What about the GI50 (SN12C) of the same compound?
A: 22.9 µM (inactive)

Q: What about the GI50 (K562) of the same compound?
A: 23 µM (inactive)

Q: What about the GI50 (KM12) of the same compound?
A: 17 µM (inactive)

Q: And the GI50 (SNB-75)?
A: 16.7 µM (inactive)

Q: And the GI50 (SNB-19)?
A: 33.4 µM (inactive)

Q: And the GI50 (NCI-H226)?
A: 18 µM (inactive)

Q: What about the GI50 (MDA-N) of the same compound?
A: 14.9 µM (inactive)

Q: And the GI50 (HCT-15)?
A: 19.2 µM

Q: What about the GI50 (MDA-MB-231) of the same compound?
A: 34 µM (inactive)

Q: What about the GI50 (MOLT-4) of the same compound?
A: 19.2 µM (inactive)

Q: And the GI50 (SK-MEL-5)?
A: 12.6 µM (inactive)

Q: What about the GI50 (OVCAR-5) of the same compound?
A: 17.9 µM (inactive)

Q: And the GI50 (HL-60)?
A: 11.3 µM (inactive)

Q: And the GI50 (M14)?
A: 19 µM (inactive)
